Legend:
LaPhzNO1 = target: T1, LaPhzNO1 (Lysobacter antibioticus, UniProt A0A172J1R7); assay: HPLC / LC-MS product analysis, coupled with LaPhzS making DHP from PDC; assay type: biochemical; conditions: NADPH, FAD; phosphate 100 mM pH 7.0, RT
T1 sequence (A0A172J1R7 1-541): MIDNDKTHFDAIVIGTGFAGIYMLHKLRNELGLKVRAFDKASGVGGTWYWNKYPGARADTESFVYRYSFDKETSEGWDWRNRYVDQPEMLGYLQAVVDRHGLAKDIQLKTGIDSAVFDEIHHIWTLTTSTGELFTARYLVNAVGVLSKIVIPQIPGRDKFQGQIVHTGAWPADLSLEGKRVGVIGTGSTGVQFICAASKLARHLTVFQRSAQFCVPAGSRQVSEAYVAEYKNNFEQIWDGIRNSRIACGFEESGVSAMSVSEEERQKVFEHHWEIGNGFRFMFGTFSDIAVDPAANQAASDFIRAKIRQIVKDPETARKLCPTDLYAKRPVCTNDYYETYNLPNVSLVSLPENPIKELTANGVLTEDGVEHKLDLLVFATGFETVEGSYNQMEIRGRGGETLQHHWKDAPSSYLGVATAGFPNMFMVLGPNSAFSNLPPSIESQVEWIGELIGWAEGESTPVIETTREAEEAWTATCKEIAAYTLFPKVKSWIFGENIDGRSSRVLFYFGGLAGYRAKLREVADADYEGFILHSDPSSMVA

LaPhzM = target: T2, LaPhzM (Lysobacter antibioticus, UniProt A0A172J1V3); assay: X-ray crystal structure, […] Å; assay type: binding; conditions: crystallised with SAM added; SAH found in cofactor site
T2 sequence (A0A172J1V3 1-341): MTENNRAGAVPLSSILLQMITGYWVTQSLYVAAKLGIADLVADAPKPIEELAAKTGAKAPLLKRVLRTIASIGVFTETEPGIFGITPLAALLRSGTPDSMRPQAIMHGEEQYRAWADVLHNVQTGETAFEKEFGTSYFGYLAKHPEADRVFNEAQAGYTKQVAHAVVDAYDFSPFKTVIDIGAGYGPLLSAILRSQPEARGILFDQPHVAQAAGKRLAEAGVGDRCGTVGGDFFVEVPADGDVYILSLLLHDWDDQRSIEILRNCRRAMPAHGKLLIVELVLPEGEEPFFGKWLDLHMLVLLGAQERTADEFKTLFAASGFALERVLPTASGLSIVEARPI

[1] = substrate: COc1cccc2c1nc1cccc(O)c1[n+]2[O-]; assay: initial velocity by HPLC of SAH formed, Michaelis-Menten fit; assay type: biochemical, Lysobacter antibioticus; conditions: co-substrate SAM, Tris 50 mM, pH 7.8, RT

Oc1cccc2nc3c(O)cccc3nc12 [compound 7, 1,6-dihydroxyphenazine]
HPLC / LC-MS product analysis, coupled with LaPhzS making DHP from PDC (LaPhzNO1): When the second enzyme LaPhzNO1 and another cofactor NADPH were added in the reaction mixture

Nc1ncnc2c1ncn2[C@@H]1O[C@H](CSCC[C@H](N)C(=O)O)[C@@H](O)[C@H]1O [S-adenosyl-L-homocysteine]
X-ray crystal structure, 1.42 Å (LaPhzM): electron density around the cofactor binding site clearly indicates an S-adenosyl-L-homocysteine (SAH), instead of a SAM

B1: LaPhzM (Lysobacter antibioticus) (protein)
chain: T2 sequence (A0A172J1V3 1-341)
Km [1]: 33.6 µM
kcat [1]: 0.01 s⁻¹

From article PMC5910208 (ACS chemical biology, 2018)
